# In patent publication US12691070B2, “Cationic lipids and preparation method thereof” (RiboX Therapeutics HK Limited, priority 2023, dated 2026):
# Key:
# [1] = LNP size and polydispersity index (PDI) by dynamic light scattering; format: physicochemical; conditions: for Size: in nm (unit assumed)
# In short: (§1)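 LNPs of ionizable lipid/DSPC/cholesterol/DMG-PEG 2000 (50:10:38.5:1.5) made by microfluidic mixing of luciferase circRNA or mRNA in pH 4.5 acetate with lipids in ethanol (3:1, 12 ml/min), ionizable lipid:nucleotide 15 or 6, then dialyzed against PBS. Size, PDI (DLS) and zeta potential on Zetasizer; encapsulation by Ribogreen ± Triton X-100.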
# [2] = LNP zeta potential (Zetasizer); format: physicochemical
# In short: as §1
# [3] = RNA encapsulation efficacy by Quant-IT Ribogreen kit; format: physicochemical; conditions: for Encapsulation Efficiency %: LNP with cirRNA (SEQ ID NO: 1); for Encapsulation Efficiency: LNP with mRNA (SEQ ID NO: 2)
# In short: as §1
# [4] = test system: Hep G2 cells; test: In vitro expression of firefly-luciferase, Hep G2; format: cell-based
# In short: (§2)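 Cells were transfected with firefly-luciferase-encoding RNA-LNPs at 100 ng/mL. After 72 hours they were washed and lysed, and luciferase activity in the lysates was read by luminometry.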
# [5] = test system: RAW 264.7 cells; test: In vitro expression of firefly-luciferase, RAW 264.7; format: cell-based
# In short: as §2
# [6] = test system: Hep G2 cells; test: In vitro toxicity (CellTiter-Glo cell viability), Hep G2; format: cell-based;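 note: percent of untreated cells luminescence signal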
# In short: (§3)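 Cells were transfected with RNA-LNPs at 1 μg/mL and, 72 hours later, viability was measured by CellTiter-Glo luminescence. Values are cell viability calculated from the luminescence signal.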
# [7] = test system: RAW 264.7 cells; test: In vitro toxicity (CellTiter-Glo cell viability), RAW 264.7; format: cell-based;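 note: percent of untreated cells luminescence signal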
# In short: as §3
# [8] = test system: BALB/C mice; test: In vivo expression, whole-body luminescence (IVIS)
# Procedure: 6-8 week old, female BALB/C mice were injected with 0.05 mg*kg-1 of RNA-LNPs encoding for firefly-luciferase by intravenous injection. At 6 hours post injection, animals were intraperitoneally injected with 15 mg/ml of Luciferin substrate and whole-body luminescence was determined by a bioluminescent in vivo imaging system (IVIS).
# [9] = test system: MCP-I; test: MCP-I cytokine elevation in serum; format: in vivo; conditions: cirRNA (SEQ ID NO: 1) LNPs, mice
# Procedure: 6-8 week old, female BALB/C mice were injected with 0.5 mg*kg-1 of RNA LNPs by intravenous injection. At 2 and 24 hours post injection, animals were bled and sera concentrations of MCP-I were determined by an immunoassay (Luminex).
# [10] = test system: Alanine Aminotransferase (ALT); test: Liver enzyme elevation in serum, ALT; format: in vivo; conditions: cirRNA (SEQ ID NO: 1) LNPs, BALB/C mice, intravenous 0.5 MPK
# Procedure: (§4) 6-8 week old, female BALB/C mice were injected with 0.5 mg*kg-1 of RNA LNPs by intravenous injection. At 2 and 24 hours post injection, animals were bled and sera concentrations of Alanine Aminotransferase (ALT) and Aspartate Aminotransferase (AST) were determined by a blood chemistry analyzer.
# [11] = test system: Aspartate Aminotransferase (AST); test: Liver enzyme elevation in serum, AST; format: in vivo; conditions: cirRNA (SEQ ID NO: 1) LNPs, BALB/C mice, intravenous 0.5 MPK
# Procedure: as §4
# [12] = test system: BALB/C mice; test: Local tolerance determination by footpad injection; format: in vivo; conditions: cirRNA (SEQ ID NO: 1) LNP, 0.175 mg*kg-1 subcutaneous into the footpad, 24 hours post minus prior
# Procedure: 6-8 week old, female BALB/C mice were injected with 0.175 mg*kg-1 RNA LNPs by subcutaneous injection into the footpad. Prior to, and 24 hours post injections, injected footpad thickness was determined by a caliper.
# [13] = cirRNA (SEQ ID NO: 1) LNPs, firefly-luciferase luminescence, Hep G2 cells
# [14] = mRNA (SEQ ID NO: 2) LNP, 100 ng/mL, 72 hours post transfection, luciferase activity
# [15] = cirRNA (SEQ ID NO: 1) LNPs, firefly-luciferase luminescence, RAW 264.7 cells
# [16] = cirRNA (SEQ ID NO: 1) LNPs, Hep G2 cells
# [17] = mRNA (SEQ ID NO: 2) LNP, 1 μg/mL, 72 hours post transfection
# [18] = cirRNA (SEQ ID NO: 1) LNPs, RAW 264.7 cells
# [19] = cirRNA (SEQ ID NO: 1) LNPs, BALB/C mice
# [20] = mRNA (SEQ ID NO: 2) LNP, 0.05 mg*kg-1 intravenous, 6 hours post injection
compound,measurement,setting,value
CCCCCCCCCCCOC(=O)CCCCCN(CCCCCCCC(=O)OC(CCCCCCCC)CCCCCCCC)CCOC(=O)NCCN1CCCCC1 [Lipid 165],PDI,[1]; LNP with cirRNA (SEQ ID NO: 1),0.05
same,Size,[1]; LNP with cirRNA (SEQ ID NO: 1),90.53
same,PDI,[1]; LNP with mRNA (SEQ ID NO: 2),0.1265
same,Size,[1]; LNP with mRNA (SEQ ID NO: 2),98.24
same,Zeta (mV),[2]; LNP with cirRNA (SEQ ID NO: 1),−1.76 mV
same,Zeta (mV),[2]; LNP with mRNA (SEQ ID NO: 2),−0.3264 mV
same,Encapsulation Efficiency %,[3],91%
same,Encapsulation Efficiency,[3],86.43%
same,In vitro Expression HepG2,[4]; [13],7.20E+05
same,In vitro Expression HepG2,[4]; [14],3.27E+06
same,In vitro Expression RAW,[5]; [15],5.29E+04
same,In vitro Expression RAW,[5]; [14],6.06E+05
same,In vitro Viability HepG2,[6]; [16],94%
same,In vitro Viability HepG2,[6]; [17],93%
same,In vitro Viability RAW,[7]; [18],88%
same,In vitro Viability RAW,[7]; [17],101%
same,In vivo Expression (Whole Body),[8]; [19],1.11E+08
same,In vivo Expression (Whole Body),[8]; [20],1.63E+08
same,MCP-I in Sera 2 hours After 0.5 MPK Injection,[9],127.19 pg/mL
same,MCP-I in Sera 24 hours After 0.5 MPK Injection,[9],113.67 pg/mL
same,ALT in Sera (IU/L) 2 hours After 0.5 MPK Injection,[10],63.90 IU/L
same,ALT in Sera (IU/L) 24 hours After 0.5 MPK Injection,[10],61.47 IU/L
same,AST in Sera (IU/L) 2 hours After 0.5 MPK Injection,[11],128.43 IU/L
same,AST in Sera (IU/L) 24 hours After 0.5 MPK Injection,[11],99.03 IU/L
same,"Footpad Thickness (24 h−0 h, mm)",[12],0.32 mm
CCCCCCCCCCC(CCCCCCCC)COC(=O)CCCCCN(CCCCCC(=O)OCC(CCCCCCCC)CCCCCCCCCC)CCOC(=O)NCCN1CCCC1 (centres unmarked) [Lipid 168],PDI,[1]; LNP with cirRNA (SEQ ID NO: 1),0.06
same,Size,[1]; LNP with cirRNA (SEQ ID NO: 1),93.98
same,PDI,[1]; LNP with mRNA (SEQ ID NO: 2),0.101
same,Size,[1]; LNP with mRNA (SEQ ID NO: 2),68.36
same,Zeta (mV),[2]; LNP with cirRNA (SEQ ID NO: 1),−0.573 mV
same,Zeta (mV),[2]; LNP with mRNA (SEQ ID NO: 2),0.8152 mV
same,Encapsulation Efficiency %,[3],97%
same,Encapsulation Efficiency,[3],89.10%
same,In vitro Expression HepG2,[4]; [13],1.03E+07
same,In vitro Expression HepG2,[4]; [14],1.80E+07
same,In vitro Expression RAW,[5]; [15],1.66E+06
same,In vitro Expression RAW,[5]; [14],6.99E+05
same,In vitro Viability HepG2,[6]; [16],55%
same,In vitro Viability HepG2,[6]; [17],70%
same,In vitro Viability RAW,[7]; [18],79%
same,In vitro Viability RAW,[7]; [17],75%
same,In vivo Expression (Whole Body),[8]; [19],4.82E+08
same,In vivo Expression (Whole Body),[8]; [20],5.89E+09
same,MCP-I in Sera 2 hours After 0.5 MPK Injection,[9],4607.51 pg/mL
same,MCP-I in Sera 24 hours After 0.5 MPK Injection,[9],75.08 pg/mL
same,ALT in Sera (IU/L) 2 hours After 0.5 MPK Injection,[10],72.80 IU/L
same,ALT in Sera (IU/L) 24 hours After 0.5 MPK Injection,[10],57.60 IU/L
same,AST in Sera (IU/L) 2 hours After 0.5 MPK Injection,[11],218.63 IU/L
same,AST in Sera (IU/L) 24 hours After 0.5 MPK Injection,[11],139.13 IU/L
same,"Footpad Thickness (24 h−0 h, mm)",[12],1.13 mm
